Experimental data from ChEMBL document CHEMBL1134508, “3-(4-aroyl-1H-pyrrol-2-yl)-N-hydroxy-2-propenamides, a new class of synthetic histone deacetylase inhibitors” (J Med Chem, 2001).
pIC50, pKi: −log10 of the molar value. Square brackets hold non-standard residues; d marks the D form. Peptide text beside a SMILES is read from it. Aoe = N[C@@H](CCCCCC(=O)[C@@H]1CO1)C(=O)O

What was measured:
[1] = molecular target: T1, Histone deacetylase HD2 (Zea mays) (UniProt Q94F81); experiment: Percent inhibition of histone deacetylase activity at 30 uM
T1 sequence (whole entry): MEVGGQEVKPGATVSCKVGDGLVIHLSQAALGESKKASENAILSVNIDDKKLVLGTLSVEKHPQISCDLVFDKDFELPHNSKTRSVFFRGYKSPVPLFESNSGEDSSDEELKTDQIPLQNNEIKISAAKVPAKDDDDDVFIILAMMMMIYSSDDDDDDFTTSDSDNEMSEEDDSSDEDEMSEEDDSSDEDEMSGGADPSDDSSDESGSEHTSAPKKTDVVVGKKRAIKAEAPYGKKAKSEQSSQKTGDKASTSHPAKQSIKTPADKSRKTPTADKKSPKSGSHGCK

Histone deacetylase HD2 [2] = molecular target: T2, Histone deacetylase HD2 (Zea mays, UniProt Q94F81); experiment: Inhibitory concentration against histone deacetylase activity
T2 sequence (Q94F81 whole entry): T1 sequence (whole entry)

Histone deacetylase HD2 [3] = molecular target: T2, Histone deacetylase HD2; experiment: Experimental anti-HDAC (anti-histone deacetylase) activity of the compound
[4] = molecular target: T1, Histone deacetylase HD2 (Zea mays); experiment: Percent inhibition of histone deacetylase activity at 5 mM

| SMILES | inhibition [1] | pIC50 (Histone deacetylase HD2 [2]) | pKi (Histone deacetylase HD2 [3]) | inhibition [4] |
| --- | --- | --- | --- | --- |
| Cn1cc(C(=O)c2ccc(F)cc2)cc1/C=C/C(=O)NO | 84% | 5.42 | 5.64 |  |
| Cn1cc(C(=O)c2ccccc2)cc1/C=C/C(=O)NN | 0.2% |  |  |  |
| Cn1cc(C(=O)c2ccc([N+](=O)[O-])cc2)cc1/C=C/C(=O)NO | 78% | 5.41 | 5.63 |  |
| COc1ccc(C(=O)c2cc(/C=C/C(=O)NO)n(C)c2)cc1 | 75.2% | 5.54 | 5.76 |  |
| Cn1cc(C(=O)c2ccccc2)cc1/C=C/C(=O)NO | 86% | 5.42 | 5.64 |  |
| Cn1cc(C(=O)c2ccccc2)cc1CCC(=O)NO | 45% | 4.43 | 8.36 |  |
| CCCC(=O)[O-].[Na+] |  |  |  | 35% |
| Cn1cc(C(=O)c2ccccc2)cc1/C=C/C(=O)NCCO | 0.9% |  |  |  |
| O=C1N[C@@H](Cc2ccccc2)C(=O)N2CCC[C@@H]2C(=O)N[C@@H](CCCCCC(=O)[C@@H]2CO2)C(=O)N[C@H]1Cc1ccccc1 [TRAPOXIN B] (cyclo(FF[dP][Aoe])) |  | 8.00 |  |  |
| CN(C)c1ccc(C(=O)c2cc(/C=C/C(=O)NO)n(C)c2)cc1 | 88% | 5.62 | 5.84 |  |
| Cc1ccc(C(=O)c2cc(/C=C/C(=O)NO)n(C)c2)cc1 | 86.4% | 5.72 | 5.95 |  |
| Cn1cc(C(=O)c2ccc(Cl)cc2)cc1/C=C/C(=O)NO | 87% | 5.62 | 5.84 |  |
| O=C(CCCCCCC(=O)Nc1ccccc1)NO [VORINOSTAT] |  |  | 6.88 |  |
